# Experimental data from ChEMBL document CHEMBL1149578, “Design, synthesis, and discovery of stilbene derivatives based on lithospermic acid B as potent protein tyrosine phosphatase 1B inhibitors” (Bioorg Med Chem Lett, 2007).
# The source made the active and inactive calls. No cut-off for these calls is given here.
# Molecular target: T1, Tyrosine-protein phosphatase non-receptor type 1 (Homo sapiens) (UniProt P18031)
# T1 sequence (whole entry): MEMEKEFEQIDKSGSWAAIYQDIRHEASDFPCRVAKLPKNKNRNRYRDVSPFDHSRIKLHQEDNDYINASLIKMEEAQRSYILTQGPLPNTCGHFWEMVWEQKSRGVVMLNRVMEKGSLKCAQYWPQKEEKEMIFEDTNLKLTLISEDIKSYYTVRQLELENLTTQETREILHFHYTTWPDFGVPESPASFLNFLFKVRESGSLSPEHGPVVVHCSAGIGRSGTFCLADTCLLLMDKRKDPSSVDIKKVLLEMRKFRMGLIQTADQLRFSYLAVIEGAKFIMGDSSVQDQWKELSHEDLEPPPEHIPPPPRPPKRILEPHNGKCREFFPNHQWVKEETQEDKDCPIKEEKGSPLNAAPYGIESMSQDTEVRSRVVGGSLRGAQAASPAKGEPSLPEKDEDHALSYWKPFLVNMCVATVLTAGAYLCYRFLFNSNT
# Experiment: (§1) Inhibition of PTP1B by colorimetric assay
row,Activity,SMILES
1,inactive,COC(=O)/C=C/c1ccc(/C=C/c2ccc(OC)c(OC)c2)cc1
2,inactive,O=C(/C=C/c1ccc(O)c(O)c1)Nc1ccccc1
3,inactive,O=[N+]([O-])c1ccc(/C=C/c2cccc(O)c2)c([N+](=O)[O-])c1
4,inactive,C(=C/c1ccccc1)/c1ccccc1
5,inactive,CCN(CC)C(=O)/C=C/c1ccc(O)c(O)c1
6,inactive,COC(=O)C=Cc1ccc(/C=C\c2ccc(O)c(O)c2)cc1
7,inactive,O=C(O)/C=C/c1ccc(O)c(O)c1
8,inactive,O=C(NCC1CCCO1)c1ccc(/C=C\c2ccc(O)c(O)c2)cc1 (stereo unspecified)
9,inactive,COc1cc(/C=C/C(=O)CC(=O)/C=C/c2ccc(O)c(OC)c2)ccc1O
10,inactive,COC(=O)c1ccc(/C=C/c2ccc(OC)c(OC)c2)cc1

row,SMILES,Activity
1,COc1ccc(/C=C/c2ccc(O)cc2)cc1OC,inactive

# Molecular target: T2, Tyrosine-protein phosphatase non-receptor type 1 (Homo sapiens, UniProt P18031)
# T2 sequence (P18031 whole entry): T1 sequence (whole entry)
# Experiment: as §1
row,SMILES,IC50
1,O=[N+]([O-])c1ccc(/C=C/c2ccc(O)c(O)c2)c([N+](=O)[O-])c1,190 µM
2,CCCCCCCCCCCCCCCC(=O)C1=C(O)[C@@H](CO)OC1=O,45 µM
3,O=[N+]([O-])c1ccc(/C=C/c2cccc(O)c2O)c([N+](=O)[O-])c1,168 µM

# Second part, the compound after the results:
row,IC50,SMILES
1,25.6 µM,COC(=O)c1ccc(/C=C/c2ccc(O)c(O)c2)cc1
2,101 µM,O=Cc1ccc(/C=C/c2ccc(O)c(O)c2)cc1
3,27.2 µM,O=C(Nc1ccccc1)c1ccc(/C=C/c2ccc(O)c(O)c2)cc1
4,138 µM,OCc1ccc(/C=C\c2ccc(O)c(O)c2)cc1
5,14.9 µM,COC(=O)/C=C/c1ccc(/C=C/c2ccc(O)c(O)c2)cc1
6,35.4 µM,O=C(NCC1CCCO1)c1ccc(/C=C/c2ccc(O)c(O)c2)cc1 (stereo unspecified)
7,260 µM,OCc1ccc(/C=C/c2ccc(O)c(O)c2)cc1
